Data: patent publication US9643971B2 (GALLEON PHARMACEUTICALS, INC., priority 2013, dated 2017)
Structures can show the parent of a compound that is named as a salt.

What was measured:
[1] = In vitro metabolic stability in human liver microsomes (HLM); conditions: both, human, liver microsomes
anesthetized rat = experiment: Anesthetized rat spirometry screening assay; format: in vivo; conditions: 2 minute AUC of minute volume increase vs. comparator N-[2,6-di-(n-propylamino)-[1,3]pyrimidin-4-yl]-N,O-dimethyl-hydroxylamine
Source text: Effect of Compounds of the Invention on Respiratory Rate (RR), Tidal Volume (VT), and the Product Minute Volume Using an Anesthetized Rat Spirometry Screening Assay
Anesthetized rats provide a quick method of screening compounds for respiratory and cardiovascular activity. In contrast to the conscious rat model, this model offers an experimental set up with less variation in the baseline cardiovascular and respiratory measures. Compounds screened in this assay may be examined in a conscious rat model.
Rats were initially anesthetized with 3% isoflurane (inhaled) and femoral artery and vein cannulas were surgically inserted. Once cannulated, the rats were transitioned to urethane anesthesia (1.5 g/kg; i.v.) and a tracheal cut-down was performed. After placing the tracheal cannula, it was connected to a pneumotachometer to record respiratory airflow from which respiratory rate (RR), tidal volume (VT), and their product minute volume were derived. After the surgical preparation was complete, animals were allowed to stabilize for 30 minutes while respiratory rate, tidal volume, minute volume, blood pressure and heart rate were recorded continuously. Arterial blood gases (ABG) were obtained from arterial blood collected from the femoral artery. ABG measurements were taken before and 6 minutes after vehicle and each dose of compound administered. Compounds being screened were administered via bolus injections through the venous cannula followed by a saline flush (total time of administration is approximately 30 seconds), and the animal was monitored for at least 6 minutes for changes in cardiovascular efforts. Compounds were prepared in formulations identified to ensure optimal solubility. As such, vehicle controls were matched for the formulation of each compound tested. Dosing of the compound being screened was 0.1 and 0.3 mg/kg. The next dose was not administered until all cardiovascular and respiratory measures had returned to baseline levels. The positive control compounds used were N-[4,6-di-(n-propylamino)-[1,3,5]triazin-2-yl]-N,O-dimethyl-hydroxylamine or N-[2,6-di-(n-propylamino)-[1,3]pyrimidin-4-yl]-N,O-dimethyl-hydroxylamine (both administered at the end of each screening experiment (0.3 mg/kg dose) to validate the experiment and also to serve as a measure with which the compound being screened could be compared.
Data were analyzed by collecting cardiovascular and respiratory data in 30 second averages (BINs). Data were plotted 2 minutes before challenge and then 6 minutes after challenge.

in vitro = conditions: male, rat, microsomes

half-life at 5 μM [1] [min]	half-life at 5 μM (in vitro) [min]	SMILES	AUC MV Inc (2 min) (ratio vs. std*) (anesthetized rat) [ratio vs. std]
> 500	331	CCCCNc1nc(NCCC)c2nc(NCCCC)nc(NCCC)c2n1.Cl [Compound 8a, N^2,N^6-Di-n-butyl-N^4,N^8-di-n-propyl-pyrimido[5,4-d]pyrimidine-2,4,6,8-tetraamine hydrochloride]	0.14
462	162	CCCNc1nc(NC(C)C)nc2c(NCCC)nc(NC(C)C)nc12.Cl [Compound 10a, N^2,N^6-Di-i-propyl-N^4,N^8-di-n-propyl-pyrimido[5,4-d]pyrimidine-2,4,6,8-tetraamine hydrochloride]	0.07
342	204	C#CCNc1nc(NC)nc2c(NCCC)nc(NC)nc12.Cl [Compound 13a, N^2,N^6-Dimethyl-N^4-n-propyl-N^8-prop-2-ynyl-pyrimido[5,4-d]pyrimidine-2,4,6,8-tetraamine hydrochloride]	0.56
29	25	CCCNc1nc(N(C)OC)nc2c(NCCC)nc(Cl)nc12.Cl [Compound 17a, N-(6-Chloro-4,8-bis-n-propylamino-pyrimido[5,4-d]pyrimidin-2-yl)-O,N-dimethyl-hydroxylamine hydrochloride]	0.05
110	106	CCCNc1nc(N(C)OC)nc2c(NCCC)nc(N(C)OC)nc12 [Compound 19a, N^2,N^6-Bis-(N-Methoxy(N-methyl)amino)-N^4,N^8-bis-n-propylamino-pyrimido[5,4-d]pyrimidine hydrochloride]	0.00
119	162	CCCNc1nc(N(C)OC)nc2c(NCCC)nc(NC)nc12.Cl [Compound 24a, O,N-Dimethyl-N-(6-methylamino-4,8-bis-n-propylamino-pyrimido[5,4-d]pyrimidin-2-yl)-hydroxylamine hydrochloride]	0.43
115	106	CCCNc1nc(NCCO)nc2c(NCCC)nc(NC)nc12 [Compound 33a, 2-(6-Methylamino-4,8-bis-n-propylamino-pyrimido[5,4-d]pyrimidin-2-yl-amino)-ethanol]	0.29
225	102	CCCNc1nc(NCCOC)nc2c(NCCC)nc(NC)nc12 [Compound 35a, N^2-(2-Methoxyethyl)-N^6-methyl-N^4,N^8-di-n-propyl-pyrimido[5,4-d]pyrimidine-2,4,6,8-tetraamine]	1.33
135	76	CCCNc1nc(NCCOC(C)C)nc2c(NCCC)nc(NC)nc12 [Compound 37a, N^2-(2-Isopropoxy-ethyl)-N^6-methyl-N^4,N^8-di-n-propyl-pyrimido[5,4-d]pyrimidine-2,4,6,8-tetraamine]	1.23
98	69	CCCNc1nc(N2CCCCC2)nc2c(NCCC)nc(NC)nc12 [Compound 43a, N^2-Methyl-N^4,N^8-di-n-propyl-6-(piperidin-1-yl)-pyrimido[5,4-d]pyrimidine-2,4,8-triamine]	0.20
110	106	CCCNc1nc(N2CCC(OC)CC2)nc2c(NCCC)nc(NC)nc12 [Compound 47a, N^2-Methyl-N^4,N^8-di-n-propyl-6-(4-methoxy-piperidin-1-yl)-pyrimido[5,4-d]pyrimidine-2,4,8-triamine]	0.00
190	84	CCCNc1nc(NCc2cccc(Cl)c2C)nc2c(NCCC)nc(NC)nc12 [Compound 49a, N^2-(3-Chloro-2-methyl-benzyl)-N^6-methyl-N^4,N^8-di-n-propyl-pyrimido[5,4-d]pyrimidine-2,4,6,8-tetraamine hydrochloride]	0.11
127	72	CCCNc1nc(NCc2ccc(Cl)c(Cl)c2)nc2c(NCCC)nc(NC)nc12 [Compound 51a, N^2-(3,4-Dichlorobenzyl)-N^6-methyl-N^4,N^8-di-n-propyl-pyrimido[5,4-d]pyrimidine-2,4,6,8-tetraamine]	0.08
79	94	CCCNc1nc(NCc2ccc(F)cc2)nc2c(NCCC)nc(NC)nc12 [Compound 53a, N^2-(4-Fluorobenzyl)-N^6-methyl-N^4,N^8-di-n-propyl-pyrimido[5,4-d]pyrimidine-2,4,6,8-tetraamine]	0.06
82	40	CCCNc1nc(NC)c2nc(Cl)nc(NC)c2n1 [Compound 54, 6-Chloro-N^4,N^8-dimethyl-N^2-n-propyl-pyrimido[5,4-d]pyrimidine-2,4,8-triamine]	0.09
> 500	388	CNc1nc(NC)c2nc(NC)nc(NC)c2n1.Cl [Compound 79a, N^2,N^4,N^6,N^8-Tetramethyl-pyrimido[5,4-d]pyrimidine-2,4,6,8-tetraamine hydrochloride]	0.00
198	274	CCNc1nc(NC)c2nc(NCC)nc(NC)c2n1.Cl [Compound 81a, N^2,N^6-Diethyl-N^4,N^8-dimethyl-pyrimido[5,4-d]pyrimidine-2,4,6,8-tetraamine hydrochloride]	0.00
71	50	CCCNc1nc(NCC2CC2)nc2c(NCCC)nc(NCC3CC3)nc12 [Compound 140a, N^2,N^6-Bis-cyclopropylmethyl-N^4,N^8-di-n-propyl-pyrimido[5,4-d]pyrimidine-2,4,6,8-tetraamine]	

SMILES	half-life at 5 μM [1] [min]	half-life at 5 μM (in vitro) [min]	AUC MV Inc (2 min) (ratio vs. std*) (anesthetized rat) [ratio vs. std]
CCCNc1nc(N(C)C)nc2c(NCCC)nc(NC)nc12.Cl [Compound 29a, N^2,N^2,N^6-Trimethyl-N^4,N^8-di-n-propyl-pyrimido[5,4-d]pyrimidine-2,4,6,8-tetraamine hydrochloride]	94	44	0.95
CCCNc1nc(N(CC)CC)nc2c(NCCC)nc(NC)nc12.Cl [Compound 31a, N^2,N^2-Diethyl-N^6-methyl-N^4,N^8-di-n-propyl-pyrimido[5,4-d]pyrimidine-2,4,6,8-tetraamine hydrochloride]	417	108	0.01
CCCNc1nc(N2CCCC2)nc2c(NCCC)nc(NC)nc12 [Compound 45a, N^2-Methyl-N^4,N^8-di-n-propyl-6-pyrrolidin-1-yl-pyrimido[5,4-d]pyrimidine-2,4,8-triamine]	> 500	> 500	0.41
